Assay results taken from the CheMixHub ionic liquid set.

Assay: xn = mol fraction of the nth substance listed

CC[n+]1ccn(C)c1.CS(=O)(=O)[O-] + CS(C)=O
101 kPa, x1 = 0.3333
Conditions | viscosity [mPa·s]
283.15 K | 5.66
288.15 K | 5.04
293.15 K | 4.47
298.15 K | 3.94
303.15 K | 3.47
308.15 K | 3.04
313.15 K | 2.66
318.15 K | 2.33
323.15 K | 2.05
328.15 K | 1.81
333.15 K | 1.63
338.15 K | 1.49
343.15 K | 1.4
348.15 K | 1.36
353.15 K | 1.33

CCCC[n+]1ccn(C)c1.N#C[S-] + CCCCCO
101 kPa
Conditions | viscosity [mPa·s]
308.15 K, x2 = 0.0193 | 31.1
308.15 K, x2 = 0.1443 | 23.4
318.15 K, x2 = 0.5557 | 7.31
328.15 K, x2 = 0.7302 | 3.71
338.15 K, x2 = 0 | 12.7
338.15 K, x2 = 0.3843 | 6.75
338.15 K, x2 = 0.616 | 4.13
348.15 K, x2 = 0.2751 | 6.6
348.15 K, x2 = 0.3843 | 5.49
348.15 K, x2 = 0.7914 | 2.17
348.15 K, x2 = 0.9135 | 1.5

C=CC[n+]1ccn(C)c1.[Cl-] + O
101 kPa
Conditions | viscosity [mPa·s]
298.15 K, x2 = 0.193 | 697
298.15 K, x2 = 0.267 | 427
303.15 K, x2 = 0.335 | 184
313.15 K, x2 = 0.045 | 473
313.15 K, x2 = 0.126 | 312
323.15 K, x2 = 0.335 | 61
333.15 K, x2 = 0.091 | 108
353.15 K, x2 = 0.126 | 36.9
353.15 K, x2 = 0.267 | 24.3
363.15 K, x2 = 0.091 | 28.6
363.15 K, x2 = 0.126 | 25.6
373.15 K, x2 = 0.126 | 18.58
373.15 K, x2 = 0.193 | 15.98
373.15 K, x2 = 0.267 | 13.37

O=[N+]([O-])[O-].O=[N+]([O-])[O-].O=[N+]([O-])[O-].[Al+3] + O + CC[NH3+].O=[N+]([O-])[O-]
100 kPa
Conditions | electrical conductivity [S/m] | viscosity [mPa·s]
233 K, x1 = 0.1395, x2 = 0.5934 | 0.001 | –
243 K, x1 = 0.1395, x2 = 0.5934 | 0.006 | –
243 K, x1 = 0.2128, x2 = 0.7086 | 0.002 | –
253 K, x1 = 0.1395, x2 = 0.5934 | 0.025 | –
253 K, x1 = 0.2128, x2 = 0.7086 | 0.011 | –
263 K, x1 = 0.1395, x2 = 0.5934 | 0.077 | –
263 K, x1 = 0.2128, x2 = 0.7086 | 0.037 | –
273 K, x1 = 0.1395, x2 = 0.5934 | 0.18 | –
273 K, x1 = 0.2128, x2 = 0.7086 | 0.094 | –
283 K, x1 = 0.1395, x2 = 0.5934 | 0.354 | –
283 K, x1 = 0.2128, x2 = 0.7086 | 0.2 | –
288.15 K, x1 = 0.1395, x2 = 0.5934 | – | 274
288.15 K, x1 = 0.2128, x2 = 0.7086 | – | 880
293 K, x1 = 0.1395, x2 = 0.5934 | 0.615 | –
293 K, x1 = 0.2128, x2 = 0.7086 | 0.371 | –
293.15 K, x1 = 0.1395, x2 = 0.5934 | – | 204
293.15 K, x1 = 0.2128, x2 = 0.7086 | – | 587
298.15 K, x1 = 0.1395, x2 = 0.5934 | – | 153.7
298.15 K, x1 = 0.2128, x2 = 0.7086 | – | 394
303 K, x1 = 0.1395, x2 = 0.5934 | 0.974 | –
303 K, x1 = 0.2128, x2 = 0.7086 | 0.624 | –
303.15 K, x1 = 0.1395, x2 = 0.5934 | – | 116.8
303.15 K, x1 = 0.2128, x2 = 0.7086 | – | 269
308.15 K, x1 = 0.1395, x2 = 0.5934 | – | 89.5
308.15 K, x1 = 0.2128, x2 = 0.7086 | – | 185
313 K, x1 = 0.1395, x2 = 0.5934 | 1.43 | –
313 K, x1 = 0.2128, x2 = 0.7086 | 0.971 | –
313.15 K, x1 = 0.1395, x2 = 0.5934 | – | 69.2
313.15 K, x1 = 0.2128, x2 = 0.7086 | – | 129.3
323 K, x1 = 0.1395, x2 = 0.5934 | 2 | –
323 K, x1 = 0.2128, x2 = 0.7086 | 1.42 | –
333 K, x1 = 0.1395, x2 = 0.5934 | 2.66 | –
333 K, x1 = 0.2128, x2 = 0.7086 | 1.98 | –
343 K, x1 = 0.1395, x2 = 0.5934 | 3.41 | –
343 K, x1 = 0.2128, x2 = 0.7086 | 2.64 | –
353 K, x1 = 0.1395, x2 = 0.5934 | 4.25 | –
353 K, x1 = 0.2128, x2 = 0.7086 | 3.42 | –
363 K, x1 = 0.1395, x2 = 0.5934 | 5.17 | –
363 K, x1 = 0.2128, x2 = 0.7086 | 4.3 | –
373 K, x1 = 0.1395, x2 = 0.5934 | 6.16 | –
373 K, x1 = 0.2128, x2 = 0.7086 | 5.28 | –

C[n+]1ccn(CCCCCn2cc[n+](C)c2)c1.O=S(=O)([N-]S(=O)(=O)C(F)(F)F)C(F)(F)F.O=S(=O)([N-]S(=O)(=O)C(F)(F)F)C(F)(F)F + CN1CCCC1=O
viscosity [mPa·s], 101 kPa
Conditions | 293.15 K | 303.15 K | 313.15 K | 323.15 K | 333.15 K
x1 = 0.3841 | 153.6 | 96 | 60.8 | 41.6 | 25.6
x1 = 0.5551 | 349 | 188.8 | 118.4 | 76.8 | 51.2
x1 = 1 | 1123 | 557 | 310 | 188.8 | 121.6

CCCC[P+](CCCC)(CCCC)CCCC.CS(=O)(=O)[O-] + c1c[nH]cn1
101.33 kPa, x1 = 0.5
Conditions | viscosity [mPa·s]
313.05 K | 100
353.05 K | 21.6

CC[N+](CC)(CC)CC.[Cl-] + CC1(C)CC(O)CC(C)(C)N1[O] + O
Conditions | electrical conductivity [S/m]
323.15 K, 100 kPa, frequency 0.001 MHz, x2 = 0, x1 = 0.2 | 4.1

CCC[N+](C)(C)C.O=S(=O)([N-]S(=O)(=O)C(F)(F)F)C(F)(F)F + CCC[N+]1(C)CCCCC1.O=S(=O)([N-]S(=O)(=O)C(F)(F)F)C(F)(F)F
101.3 kPa
Conditions | viscosity [mPa·s]
283.15 K, x1 = 0.6 | 248
283.15 K, x1 = 0.8 | 201
293.15 K, x1 = 0.6 | 134
293.15 K, x1 = 0.8 | 113
308.15 K, x1 = 0.4 | 71
308.15 K, x1 = 0.6 | 64
313.15 K, x1 = 0.8 | 45.9
318.15 K, x1 = 0.4 | 46.4
318.15 K, x1 = 0.6 | 42.3
343.15 K, x1 = 0.4 | 20.2
343.15 K, x1 = 0.8 | 17.5
348.15 K, x1 = 0.8 | 15.4
348.15 K, x1 = 1 | 14.6
